These results are taken from patent US12539292B2, “BRM targeting compounds and associated methods of use” (Arvinas Operations, Inc., priority 2018, dated 2026).

The structures appear in SMILES notation.

The target of this experiment is T1, BRM (Homo sapiens, UniProt P51531).
T1 construct: In-Cell Western Screen of BRM Degradation in SW1573 Cells; endogenous in cells; host or cells: SW1573
Kind of experiment: In-cell Western screen of BRM degradation in SW1573 cells (Dmax and DC50). Particulars: BRM degradation, SW1573 cells; for DC50: read-out: DC50; for Dmax: read-out: Dmax (% degraded). The experiment is classed as cell-based. An outline of the steps: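 SW1573 cells were treated overnight (18-20 hours) with compound at 0.1% final DMSO. They were then PFA-fixed, permeabilised with Triton X-100 and immunostained with 800 nm/680 nm secondary antibodies. BRM signal was quantified by LI-COR in-cell Western imaging to derive Dmax and DC50.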

T1 sequence (P51531 whole entry): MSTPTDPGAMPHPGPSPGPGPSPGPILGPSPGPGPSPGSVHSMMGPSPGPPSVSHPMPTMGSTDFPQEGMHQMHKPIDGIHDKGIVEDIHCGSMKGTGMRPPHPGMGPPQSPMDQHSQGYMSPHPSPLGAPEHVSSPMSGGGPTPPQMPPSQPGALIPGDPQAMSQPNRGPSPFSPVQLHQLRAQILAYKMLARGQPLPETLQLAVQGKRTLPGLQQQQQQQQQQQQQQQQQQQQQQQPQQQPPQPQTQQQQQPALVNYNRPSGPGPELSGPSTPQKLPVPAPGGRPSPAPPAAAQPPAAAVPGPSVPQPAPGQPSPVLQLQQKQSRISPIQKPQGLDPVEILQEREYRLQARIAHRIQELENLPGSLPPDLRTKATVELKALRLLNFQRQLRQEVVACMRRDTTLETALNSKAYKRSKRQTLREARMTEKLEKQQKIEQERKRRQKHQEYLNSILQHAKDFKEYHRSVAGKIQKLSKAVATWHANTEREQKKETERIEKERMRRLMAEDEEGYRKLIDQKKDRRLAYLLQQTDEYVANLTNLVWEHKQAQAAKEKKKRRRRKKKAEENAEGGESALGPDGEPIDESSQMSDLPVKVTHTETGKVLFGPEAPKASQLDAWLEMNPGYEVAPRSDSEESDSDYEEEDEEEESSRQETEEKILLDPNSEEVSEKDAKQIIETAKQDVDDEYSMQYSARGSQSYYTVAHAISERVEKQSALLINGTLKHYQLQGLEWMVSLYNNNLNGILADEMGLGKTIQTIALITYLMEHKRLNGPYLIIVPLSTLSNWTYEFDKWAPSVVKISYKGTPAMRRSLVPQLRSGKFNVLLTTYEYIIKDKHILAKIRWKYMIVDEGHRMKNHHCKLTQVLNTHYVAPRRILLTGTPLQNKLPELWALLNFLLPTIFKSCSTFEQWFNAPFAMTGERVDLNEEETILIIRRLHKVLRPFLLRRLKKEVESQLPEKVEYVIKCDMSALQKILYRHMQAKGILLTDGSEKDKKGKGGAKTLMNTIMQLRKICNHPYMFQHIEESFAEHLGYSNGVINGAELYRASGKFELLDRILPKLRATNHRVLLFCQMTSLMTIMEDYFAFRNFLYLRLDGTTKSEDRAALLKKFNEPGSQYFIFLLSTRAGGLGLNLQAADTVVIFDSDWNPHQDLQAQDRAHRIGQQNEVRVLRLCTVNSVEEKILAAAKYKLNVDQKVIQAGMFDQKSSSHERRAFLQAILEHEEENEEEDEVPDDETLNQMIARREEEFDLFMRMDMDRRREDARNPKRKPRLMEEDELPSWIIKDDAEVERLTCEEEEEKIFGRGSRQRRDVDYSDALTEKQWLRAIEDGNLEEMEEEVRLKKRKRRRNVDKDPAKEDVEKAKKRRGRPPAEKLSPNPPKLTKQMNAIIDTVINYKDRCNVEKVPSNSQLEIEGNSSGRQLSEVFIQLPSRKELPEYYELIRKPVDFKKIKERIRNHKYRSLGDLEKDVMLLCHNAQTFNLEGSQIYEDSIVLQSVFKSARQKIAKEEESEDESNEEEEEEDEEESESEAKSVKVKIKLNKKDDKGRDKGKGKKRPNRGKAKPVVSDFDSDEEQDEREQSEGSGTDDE

`Cc1ncsc1-c1ccc([C@H](C)NC(=O)[C@@H]2C[C@@H](O)CN2C(=O)[C@H](c2cc(N3CCC(F)(CN4CCC(O[C@H]5C[C@H](Oc6cc(N7C8CCC7CN(c7cc(-c9ccccc9O)nnc7N)C8)ccn6)C5)CC4)CC3)no2)C(C)C)cc1` [compound 682, (2S,4R)-1-((2S)-2-(3-(4-((4-((1r,3r)-3-((4-(3-(3-amino-6-(2-hydroxyphenyl)pyridazin-4-yl)-3,8-diazabicyclo[3.2.1]octan-8-yl)pyridin-2-yl)oxy)cyclobutoxy)piperidin-1-yl)methyl)-4-fluoropiperidin-1-yl)isoxazol-5-yl)-3-methylbutanoyl)-4-hydroxy-N-((S)-1-(4-(4-methylthiazol-5-yl)phenyl)ethyl)pyrrolidine-2-carboxamide]: the half-maximal degradation concentration (DC50) fell in the range of 2.5 to 10 nM and the greatest degradation seen (Dmax) was over 75%.
`Cc1ncsc1-c1ccc([C@H](C)NC(=O)[C@@H]2C[C@@H](O)CN2C(=O)[C@@H](c2cc(N3CCC(F)(CN4CCC(O[C@H]5C[C@H](Oc6cc(N7C8CCC7CN(c7cc(-c9ccccc9O)nnc7N)C8)ccn6)C5)CC4)CC3)no2)C(C)C)cc1` [compound 683, (2S,4R)-1-((2R)-2-(3-(4-((4-((1r,3r)-3-((4-(3-(3-amino-6-(2-hydroxyphenyl)pyridazin-4-yl)-3,8-diazabicyclo[3.2.1]octan-8-yl)pyridin-2-yl)oxy)cyclobutoxy)piperidin-1-yl)methyl)-4-fluoropiperidin-1-yl)isoxazol-5-yl)-3-methylbutanoyl)-4-hydroxy-N-((S)-1-(4-(4-methylthiazol-5-yl)phenyl)ethyl)pyrrolidine-2-carboxamide]: the DC50 was under 2.5 nM and the maximal degradation (Dmax) was over 75%.
In the case of `Cc1ncsc1-c1ccc([C@H](C)NC(=O)[C@@H]2C[C@@H](O)CN2C(=O)[C@H](c2cc(N3CCC(N4CCC(O[C@H]5C[C@H](Oc6cc(N7C8CCC7CN(c7cc(-c9ccccc9O)nnc7N)C8)ccn6)C5)CC4)CC3)no2)C(C)C)cc1` [compound 684, (2S,4R)-1-((2S)-2-(3-(4-((1r,3S)-3-((4-(3-(3-amino-6-(2-hydroxyphenyl)pyridazin-4-yl)-3,8-diazabicyclo[3.2.1]octan-8-yl)pyridin-2-yl)oxy)cyclobutoxy)-[1,4'-bipiperidin]-1'-yl)isoxazol-5-yl)-3-methylbutanoyl)-4-hydroxy-N-((S)-1-(4-(4-methylthiazol-5-yl)phenyl)ethyl)pyrrolidine-2-carboxamide], the DC50 lay in the range of 10 to 30 nM and the Dmax fell in the range of 50 to 75%.
For `Cc1ncsc1-c1ccc([C@H](C)NC(=O)[C@@H]2C[C@@H](O)CN2C(=O)[C@@H](c2cc(N3CCC(N4CCC(O[C@H]5C[C@H](Oc6cc(N7C8CCC7CN(c7cc(-c9ccccc9O)nnc7N)C8)ccn6)C5)CC4)CC3)no2)C(C)C)cc1` [compound 685, (2S,4R)-1-((2R)-2-(3-(4-((1r,3R)-3-((4-(3-(3-amino-6-(2-hydroxyphenyl)pyridazin-4-yl)-3,8-diazabicyclo[3.2.1]octan-8-yl)pyridin-2-yl)oxy)cyclobutoxy)-[1,4'-bipiperidin]-1'-yl)isoxazol-5-yl)-3-methylbutanoyl)-4-hydroxy-N-((S)-1-(4-(4-methylthiazol-5-yl)phenyl)ethyl)pyrrolidine-2-carboxamide] the same measures were under 2.5 nM and over 75%.
As for `Cc1ncsc1-c1ccc([C@@H](CCCC(=O)O)NC(=O)[C@@H]2C[C@@H](O)CN2C(=O)C(c2cc(OCCN3CCC(O[C@H]4C[C@H](Oc5cc(N6C7CCC6CN(c6cc(-c8ccccc8O)nnc6N)C7)ccn5)C4)CC3)no2)C(C)C)cc1` (stereo partly drawn) [compound 686, (5R)-5-((2S,4R)-1-(2-(3-(2-(4-((1r,3r)-3-((4-(3-(3-amino-6-(2-hydroxyphenyl)pyridazin-4-yl)-3,8-diazabicyclo[3.2.1]octan-8-yl)pyridin-2-yl)oxy)cyclobutoxy)piperidin-1-yl)ethoxy)isoxazol-5-yl)-3-methylbutanoyl)-4-hydroxypyrrolidine-2-carboxamido)-5-(4-(4-methylthiazol-5-yl)phenyl)pentanoic acid], the half-maximal degradation concentration (DC50) is over 30 nM.

In general, DC50 refers to the midpoint of the concentration-degradation curve. A word on the Dmax: it is the greatest extent of degradation seen.
